Assay results from patent publication US20110144160A1, “Antagonists of Prostaglandin D2 Receptors” (Amira Pharmaceuticals, Inc., priority 2008, published 2011).

Each molecule was assayed against T1, human DP1 receptor (Homo sapiens, UniProt Q13258) (assay: DP1 binding assay ([3H]BWA868C radioligand)). Settings: human platelet membranes, 2 nM [3H]BWA868C; read-out: hDP1.
T1 construct: tissue Biological Specialty Corporation; host or cells: human platelets, membrane preparation
T1 sequence (Q13258 1-359): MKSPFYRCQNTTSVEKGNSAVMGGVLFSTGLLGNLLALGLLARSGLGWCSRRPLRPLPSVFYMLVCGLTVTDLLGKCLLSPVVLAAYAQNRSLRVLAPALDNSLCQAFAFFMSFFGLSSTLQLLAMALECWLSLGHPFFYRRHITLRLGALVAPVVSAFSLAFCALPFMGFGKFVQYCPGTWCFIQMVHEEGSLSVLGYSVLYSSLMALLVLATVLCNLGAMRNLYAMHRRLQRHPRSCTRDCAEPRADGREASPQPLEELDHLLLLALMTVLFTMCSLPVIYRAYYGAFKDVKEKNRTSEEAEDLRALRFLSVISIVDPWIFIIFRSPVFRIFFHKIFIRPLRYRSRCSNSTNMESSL
Protocol: The ability of a compound to bind to the human DP1 receptor was evaluated via a radioligand membrane binding assay using the DP1 selective synthetic ligand [^3H]BWA868C. Packed human platelets (Biological Specialty Corporation), were resuspended in 6 volumes of Hepes/HBSS buffer (10 mM Hepes, 1 mM DTT in Hanks Balanced Salt Solution (HBSS), lysed and centrifuged at 75,000×g to pellet the membranes. Membranes were resuspended in Hepes/HBSS buffer to approximately 12 mg protein/ml. Membranes (20 μg protein/well) are incubated in 96-well plates with 2 nM [^3H]BWA868C and test compound in Assay Buffer (50 mM Hepes, 10 mM MnCl2, 1 mM EDTA, plus or minus 0.2% human serum albumin, pH 7.4) for 60 minutes at room temperature. The reactions are terminated by rapid filtration through Whatman GF/C glass fibre filter plates. The filter plates were pre-soaked in 0.33% polethylenimine for 30 minutes at room temperature then washed in Wash Buffer (50 mM Hepes, 0.5 M NaCl pH 7.4) prior to harvesting. After harvesting, the filter plates are washed 3 times with 1 ml cold Wash Buffer then dried. Scintillant is then added to the plates and the radioactivity retained on the filters is determined on a Packard TopCount (Perkin Elmer). Specific binding is determined as total radioactive binding minus non-specific binding in the presence of 10 μM BW A868C. IC50s were determined using GraphPad prism analysis of drug titration curves.

IC50 [µM]	SMILES
> 1	COc1ccc(CC(=O)O)cc1Oc1ccc(NC(=O)c2ccc(Cl)cc2)cc1CSCC(F)(F)F [Compound 1, {3-[4-(4-Chloro-benzoylamino)-2-(2,2,2-trifluoro-ethylsulfanylmethyl)-phenoxy]-4-methoxy-phenyl}-acetic acid]
> 1	COc1ccc(CC(=O)O)cc1Oc1ccc(NC(=O)C(C)(C)C)cc1CSCC(F)(F)F [Compound 2, {3-[4-(2,2-dimethyl-propionylamino)-2-(2,2,2-trifluoro-ethylsulfanylmethyl)-phenoxy]-4-methoxy-phenyl}-acetic acid]
> 1	COc1ccc(CC(=O)O)cc1Oc1ccc(NC(=O)C(C)(C)C)cc1CSC(C)(C)C [Compound 7, {3-[2-tert-Butylsulfanylmethyl-4-(2,2-dimethyl-propionylamino)-phenoxy]-4-methoxy-phenyl}-acetic acid]
> 1	COc1ccc(CC(=O)O)cc1Oc1ccc(NC(=O)c2ccc(Cl)cc2)cc1CSc1ccccc1 [Compound 17, {3-[4-(4-Chloro-benzoylamino)-2-phenylsulfanylmethyl-phenoxy]-4-methoxy-phenyl}-acetic acid]

The molecules below were run against T2, human DP2 receptor (Homo sapiens, UniProt Q9Y5Y4) (assay: DP2/CRTH2 binding assay ([3H]PGD2 radioligand)). Settings: membranes of HEK293 cells expressing recombinant human DP2, 1 nM [3H]PGD2; read-out: hDP2.
T2 construct: expressed in transfected cells
T2 sequence (Q9Y5Y4 1-395): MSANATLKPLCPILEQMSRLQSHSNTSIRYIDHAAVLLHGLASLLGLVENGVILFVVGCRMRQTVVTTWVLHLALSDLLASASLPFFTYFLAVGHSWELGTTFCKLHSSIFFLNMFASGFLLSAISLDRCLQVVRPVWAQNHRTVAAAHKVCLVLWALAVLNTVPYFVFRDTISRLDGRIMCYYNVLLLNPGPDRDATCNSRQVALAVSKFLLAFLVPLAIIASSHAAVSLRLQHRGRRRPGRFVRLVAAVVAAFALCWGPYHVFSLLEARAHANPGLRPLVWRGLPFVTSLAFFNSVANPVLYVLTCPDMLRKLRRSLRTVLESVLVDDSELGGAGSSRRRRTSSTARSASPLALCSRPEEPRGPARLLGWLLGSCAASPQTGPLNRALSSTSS
Protocol: The ability of a compound to bind to the human DP2 receptor is assessed via a radioligand binding assay using [^3H]PGD2. HEK293 cells stably expressing recombinant human DP2 are resuspended in 10 mM Hepes, 7.4 containing 1 mM DTT, lysed and centrifuged at 75,000×g to pellet the membranes. The membranes are resuspended in 10 mM Hepes, 7.4 containing 1 mM DTT and 10% glycerol to approximately 5 mg protein/ml. Membranes (2-10 μg protein/well) are incubated in 96-well plates with 1 nM [^3H]PGD2 and test compound in Assay Buffer (50 mM Hepes, 10 mM MnCl2, 1 mM EDTA, plus or minus 0.2% human serum albumin, pH 7.4) for 60 minutes at room temperature. The reactions are terminated by rapid filtration through Whatman GF/C glass fibre filter plates. The filter plates were pre-soaked in 0.33% polythylenimine for 30 minutes at room temperature then washed in Wash Buffer (50 mM Hepes, 0.5 M NaCl pH 7.4) prior to harvesting. After harvesting, the filter plates are washed 3 times with 1 ml cold Wash Buffer then dried. Scintillant is then added to the plates and the radioactivity retained on the filters is determined on a Packard TopCount (Perkin Elmer). Specific binding is determined as total radioactive binding minus non-specific binding in the presence of 10 μM PGD2. IC50s were determined using GraphPad prism analysis of drug titration curves.

IC50 [µM]	SMILES
< 0.3	COc1ccc(CC(=O)O)cc1Oc1ccc(NC(=O)C(C)(C)C)cc1CSC(C)(C)C [Compound 7, {3-[2-tert-Butylsulfanylmethyl-4-(2,2-dimethyl-propionylamino)-phenoxy]-4-methoxy-phenyl}-acetic acid]
< 0.3	COc1ccc(CC(=O)O)cc1Oc1ccc(C(=O)NC(C)(C)C)cc1CSC(C)(C)C [Compound 39, [3-(4-tert-Butylcarbamoyl-2-tert-butylsulfanylmethyl-phenoxy)-4-methoxy-phenyl]-acetic acid]
< 0.3	COc1ccc(CC(=O)O)cc1Oc1ccc(C(=O)NCC(=O)c2ccccc2)cc1CSC(C)(C)C [Compound 40, {3-[2-tert-butylsulfanylmethyl-4-(2-oxo-2-phenyl-ethylcarbamoyl)-phenoxy]-4-methoxy-phenyl}-acetic acid]
< 0.3	COc1ccc(CC(=O)O)cc1Oc1ccc(C(=O)NC(C)(C)Cc2ccc(F)cc2)cc1CSC(C)(C)C [Compound 41, (3-{2-tert-butylsulfanylmethyl-4-[2-(4-fluoro-phenyl)-1,1-dimethyl-ethylcarbamoyl]-phenoxy}-4-methoxy-phenyl)-acetic acid]
< 0.3	COc1ccc(NC(=O)c2ccc(Oc3cc(CC(=O)O)ccc3OC)c(CSC(C)(C)C)c2)cn1 [Compound 43, {3-[2-tert-butylsulfanylmethyl-4-(6-methoxy-pyridin-3-ylcarbamoyl)-phenoxy]-4-methoxy-phenyl}-acetic acid]
< 0.3	COc1ccc(CC(=O)O)cc1Oc1ccc(C(=O)NCC(F)(F)F)cc1CSC(C)(C)C [Compound 44, {3-[2-tert-butylsulfanylmethyl-4-(2,2,2-trifluoro-ethylcarbamoyl)-phenoxy]-4-methoxy-phenyl}-acetic acid]
0.3 to 1	COc1ccc(CC(=O)O)cc1Oc1ccc(C(=O)NCC(C)(C)C)cc1CSC(C)(C)C [Compound 46, {3-[2-tert-butylsulfanylmethyl-4-(2,2-dimethyl-propylcarbamoyl)-phenoxy]-4-methoxy-phenyl}-acetic acid]

The remaining lines, values behind:

SMILES	IC50 [µM]
COc1ccc(CC(=O)O)cc1Oc1ccc(NC(=O)c2ccc(Cl)cc2)cc1CSCC(F)(F)F [Compound 1, {3-[4-(4-Chloro-benzoylamino)-2-(2,2,2-trifluoro-ethylsulfanylmethyl)-phenoxy]-4-methoxy-phenyl}-acetic acid]	< 0.3
COc1ccc(CC(=O)O)cc1Oc1ccc(NC(=O)C(C)(C)C)cc1CSCC(F)(F)F [Compound 2, {3-[4-(2,2-dimethyl-propionylamino)-2-(2,2,2-trifluoro-ethylsulfanylmethyl)-phenoxy]-4-methoxy-phenyl}-acetic acid]	< 0.3
COc1ccc(CC(=O)O)cc1Oc1ccc(NC(=O)c2ccc(Cl)cc2)cc1CSc1ccccc1 [Compound 17, {3-[4-(4-Chloro-benzoylamino)-2-phenylsulfanylmethyl-phenoxy]-4-methoxy-phenyl}-acetic acid]	< 0.3
COc1ccc(CC(=O)O)cc1Oc1ccc(C(=O)N2CCCCC2)cc1CSC(C)(C)C [Compound 42, {3-[2-tert-butylsulfanylmethyl-4-(piperidine-1-carbonyl)-phenoxy]-4-methoxy-phenyl}-acetic acid]	> 1
COc1ccc(CC(=O)O)cc1Oc1ccc(C(=O)N(C)C(C)C)cc1CSC(C)(C)C [Compound 45, {3-[2-tert-butylsulfanylmethyl-4-(isopropyl-methyl-carbamoyl)-phenoxy]-4-methoxy-phenyl}-acetic acid]	> 1
CC(C)(C)SCc1cc(NC(=O)C(C)(C)C)ccc1Oc1cc(Cl)cc(CC(=O)O)c1 [Compound 47, {3-[2-tert-Butylsulfanylmethyl-4-(2,2-dimethyl-propionylamino)-phenoxy]-5-chloro-phenyl}-acetic acid]	< 0.3
CC(C)(C)C(=O)Nc1ccc(Oc2cc(Cl)cc(CC(=O)O)c2)c(CS(=O)(=O)C(C)(C)C)c1 [Compound 48, {3-Chloro-5-[4-(2,2-dimethyl-propionylamino)-2-(2-methyl-propane-2-sulfonylmethyl)-phenoxy]-phenyl}-acetic acid]	< 0.3
CC(C)(C)C(=O)Nc1ccc(Oc2cc(CC(=O)O)ccc2OC(F)F)c(CSCC(F)(F)F)c1 [Compound 49, {4-Difluoromethoxy-3-[4-(2,2-dimethyl-propionylamino)-2-(2,2,2-trifluoro-ethylsulfanylmethyl)-phenoxy]-phenyl}-acetic acid]	< 0.3
CC(C)(C)C(=O)Nc1ccc(Oc2cc(CC(=O)O)ccc2OC(F)F)c(CS(=O)(=O)CC(F)(F)F)c1 [Compound 50, {4-Difluoromethoxy-3-[4-(2,2-dimethyl-propionylamino)-2-(trifluoro-ethanesulfonylmethyl)-phenoxy]-phenyl}-acetic acid]	< 0.3
Cc1ccc(CC(=O)O)cc1Oc1ccc(NC(=O)C(C)(C)C)cc1CSCC(F)(F)F [Compound 51, {3-[4-(2,2-Dimethyl-propionylamino)-2-(2,2,2-trifluoro-ethylsulfanylmethyl)-phenoxy]-4-methyl-phenyl}-acetic acid]	< 0.3
CC(C)SCc1cc(NC(=O)C(C)(C)C)ccc1Oc1cc(CC(=O)O)ccc1Cl [Compound 52, {4-Chloro-3-[4-(2,2-dimethyl-propionylamino)-2-isopropylsulfanylmethyl-phenoxy]-phenyl}-acetic acid]	< 0.3
CC(C)(C)C(=O)Nc1ccc(Oc2cc(CC(=O)O)ccc2Cl)c(CSCC(F)(F)F)c1 [Compound 53, {4-Chloro-3-[4-(2,2-dimethyl-propionylamino)-2-(2,2,2-trifluoro-ethylsulfanylmethyl)-phenoxy]-phenyl}-acetic acid]	< 0.3
CC(C)SCc1cc(NC(=O)C(C)(C)C)ccc1Oc1cc(CC(=O)O)cc(C(F)(F)F)c1 [Compound 54, {3-[4-(2,2-Dimethyl-propionylamino)-2-isopropylsulfanylmethyl-phenoxy]-5-trifluoromethyl-phenyl}-acetic acid]	< 0.3
C=Cc1ccc(CC(=O)O)cc1Oc1ccc(NC(=O)C(C)(C)C)cc1CSCC(F)(F)F [Compound 55, {3-[4-(2,2-Dimethyl-propionylamino)-2-(2,2,2-trifluoro-ethylsulfanylmethyl)-phenoxy]-4-vinyl-phenyl}-acetic acid]	< 0.3
CCc1ccc(CC(=O)O)cc1Oc1ccc(NC(=O)C(C)(C)C)cc1CSCC(F)(F)F [Compound 56, {3-[4-(2,2-Dimethyl-propionylamino)-2-(2,2,2-trifluoro-ethylsulfanylmethyl)-phenoxy]-4-ethyl-phenyl}-acetic acid]	< 0.3
COc1ccc(CC(=O)O)cc1Oc1ccc(NS(=O)(=O)c2cccc3c(N(C)C)cccc23)cc1CSC(C)(C)C [Compound 72, {3-[2-tert-butylsulfanylmethyl-4-(5-dimethylamino-naphthalene-1-sulfonylamino)-phenoxy]-4-methoxy-phenyl}-acetic acid]	0.3 to 1
